Experimental data as given in patent publication US7838207B2, “Surrogate cell-based system and method for assaying the activity of hepatitis C virus NS3 protease” (Boehringer Ingelheim Canada Ltd., priority 1999, dated 2010).

System: tetracycline transactivator (tTA)
Assay: Tetracycline internal control: luciferase assay in 293 cells co-transfected with chimera G and pUHC13-3 reporter
Assay type: cell-based
Settings: in the presence of tetracycline (over 2,000,000 cps in its absence)
Text: Expression of the luciferase reporter gene is controlled by NS3 processing of a tetracycline responsive transcriptional trans-activator. Luciferase assay performed on extracts of 293 cells co-transfected with construct G or H, or the positive control tTA-producing plasmid (pUHD15-1), and the pUHC13-3 plasmid containing the luciferase reporter. Closed and open bars indicate the absence and presence of tetracycline, respectively. Note that construct G produces a tetracycline controlled signal; inactivation of the NS3 protease activity (in construct H) abolishes this signal.
The three families (clones A, D, and G) of HCV-tTA chimeras, and their active site and cleavage site mutant variants, were each co-transfected with the pUHC13-3 reporter into 293 cells to determine the extent of NS3-dependent luciferase expression (FIG. 6). Cells in 35 mm wells were co-transfected with each of the constructs described in FIGS. 2A to 2I and the pUHC13-3 reporter plasmid using the calcium phosphate method. The cells were harvested 48 hours post-transfection and washed twice in phosphate buffered saline. […] An aliquot of 10 μl of supernatant was mixed with 50 μl of the luciferase assay reagent (Promega) in a 96 well plate and the amount of light produced measured using a Digene luminometer or Packard top-count scintillation counter. […]

CN(C)[C@@H]1C(O)=C(C(N)=O)C(=O)[C@@]2(O)C(O)=C3C(=O)c4c(O)cccc4[C@@](C)(O)[C@H]3C[C@@H]12 [tetracycline]
Luciferase activity: 40000 cps
